Assay [1] concerns the target T1, Tyrosine-protein phosphatase non-receptor type 2 (Homo sapiens, UniProt P17706).
T1 sequence (P17706 whole entry): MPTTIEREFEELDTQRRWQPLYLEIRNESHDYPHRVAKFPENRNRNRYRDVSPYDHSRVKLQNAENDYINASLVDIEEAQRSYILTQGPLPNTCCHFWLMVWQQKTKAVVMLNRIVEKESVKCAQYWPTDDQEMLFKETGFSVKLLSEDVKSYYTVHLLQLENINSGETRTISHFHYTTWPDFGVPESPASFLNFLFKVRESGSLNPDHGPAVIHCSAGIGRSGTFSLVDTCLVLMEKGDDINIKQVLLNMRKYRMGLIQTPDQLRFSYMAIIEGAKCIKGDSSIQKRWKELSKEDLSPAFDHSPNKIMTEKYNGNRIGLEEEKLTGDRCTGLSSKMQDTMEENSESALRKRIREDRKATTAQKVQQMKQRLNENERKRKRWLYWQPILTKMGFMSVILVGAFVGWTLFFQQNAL
As to the kind of experiment: Inhibition of GST-tagged human TCPTP.

Assay [2] addresses T2, Tyrosine-protein phosphatase non-receptor type 1 (Homo sapiens, UniProt P18031).
T2 sequence (P18031 whole entry): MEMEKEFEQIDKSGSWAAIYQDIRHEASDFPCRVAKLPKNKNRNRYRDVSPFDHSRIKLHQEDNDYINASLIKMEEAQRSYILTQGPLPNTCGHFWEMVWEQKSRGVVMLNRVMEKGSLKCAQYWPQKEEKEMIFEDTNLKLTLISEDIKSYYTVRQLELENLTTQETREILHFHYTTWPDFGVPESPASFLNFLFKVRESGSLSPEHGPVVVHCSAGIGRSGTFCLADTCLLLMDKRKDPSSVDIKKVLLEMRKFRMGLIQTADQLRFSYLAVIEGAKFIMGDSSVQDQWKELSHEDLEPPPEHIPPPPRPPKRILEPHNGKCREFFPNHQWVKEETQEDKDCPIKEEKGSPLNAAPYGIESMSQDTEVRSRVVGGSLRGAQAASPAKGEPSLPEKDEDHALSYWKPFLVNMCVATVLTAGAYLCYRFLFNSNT
Nature of the assay: Inhibition of GST-tagged human PTP 1B.

The species entered for a further assay is Homo sapiens. As to the kind of experiment: Selectivity, ratio of IC50 for GST-tagged human TCPTP to IC50 for GST-tagged human PTP 1B.
Assay [3] concerns the target Receptor-type tyrosine-protein phosphatase F (Homo sapiens, UniProt P10586). Nature of the assay: Inhibition of GST-tagged human LAR.
For assay [4], the target named is T3, Tyrosine-protein phosphatase non-receptor type 11 (Homo sapiens, UniProt Q06124).
T3 sequence (Q06124 whole entry): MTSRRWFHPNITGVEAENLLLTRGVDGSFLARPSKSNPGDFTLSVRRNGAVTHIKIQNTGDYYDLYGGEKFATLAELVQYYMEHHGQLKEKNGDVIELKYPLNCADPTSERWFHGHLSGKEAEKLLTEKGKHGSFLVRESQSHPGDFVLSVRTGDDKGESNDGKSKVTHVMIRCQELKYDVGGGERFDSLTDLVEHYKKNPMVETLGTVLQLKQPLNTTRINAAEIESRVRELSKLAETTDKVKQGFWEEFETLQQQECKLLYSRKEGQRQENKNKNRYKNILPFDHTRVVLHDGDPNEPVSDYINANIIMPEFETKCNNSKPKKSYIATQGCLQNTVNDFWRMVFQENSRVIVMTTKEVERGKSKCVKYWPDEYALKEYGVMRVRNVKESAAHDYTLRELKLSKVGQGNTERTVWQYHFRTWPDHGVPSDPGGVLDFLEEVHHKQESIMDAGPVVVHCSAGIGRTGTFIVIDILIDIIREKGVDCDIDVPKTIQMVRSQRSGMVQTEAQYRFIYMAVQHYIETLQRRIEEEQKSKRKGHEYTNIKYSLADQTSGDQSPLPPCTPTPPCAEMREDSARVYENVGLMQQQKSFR
As to the kind of experiment: Inhibition of GST-tagged human SHP2.

The target of assay [5] is Tyrosine-protein phosphatase non-receptor type 6 (Homo sapiens, UniProt P29350). As to the kind of experiment: Inhibition of GST-tagged human SHP1.
Chain of Tyrosine-protein phosphatase non-receptor type 6 (P29350 whole entry): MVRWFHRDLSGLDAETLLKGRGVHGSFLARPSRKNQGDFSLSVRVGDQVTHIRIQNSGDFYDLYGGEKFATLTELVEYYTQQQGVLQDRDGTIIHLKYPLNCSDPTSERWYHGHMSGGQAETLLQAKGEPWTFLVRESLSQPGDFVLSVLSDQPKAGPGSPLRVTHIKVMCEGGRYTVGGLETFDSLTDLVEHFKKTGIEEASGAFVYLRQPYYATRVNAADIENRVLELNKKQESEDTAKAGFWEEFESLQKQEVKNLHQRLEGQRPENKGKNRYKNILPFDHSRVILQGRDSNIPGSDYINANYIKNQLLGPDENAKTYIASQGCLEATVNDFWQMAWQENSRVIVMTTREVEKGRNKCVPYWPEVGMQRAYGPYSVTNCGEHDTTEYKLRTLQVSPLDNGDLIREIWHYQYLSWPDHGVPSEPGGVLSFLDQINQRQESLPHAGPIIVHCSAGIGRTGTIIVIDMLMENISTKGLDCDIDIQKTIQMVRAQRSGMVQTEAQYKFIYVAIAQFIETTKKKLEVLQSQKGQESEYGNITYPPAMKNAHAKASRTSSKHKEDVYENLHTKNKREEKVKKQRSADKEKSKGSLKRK
Assay [6] in a line: Inhibition of glycogen phosphorylase.

Chain of Receptor-type tyrosine-protein phosphatase F (P10586 whole entry): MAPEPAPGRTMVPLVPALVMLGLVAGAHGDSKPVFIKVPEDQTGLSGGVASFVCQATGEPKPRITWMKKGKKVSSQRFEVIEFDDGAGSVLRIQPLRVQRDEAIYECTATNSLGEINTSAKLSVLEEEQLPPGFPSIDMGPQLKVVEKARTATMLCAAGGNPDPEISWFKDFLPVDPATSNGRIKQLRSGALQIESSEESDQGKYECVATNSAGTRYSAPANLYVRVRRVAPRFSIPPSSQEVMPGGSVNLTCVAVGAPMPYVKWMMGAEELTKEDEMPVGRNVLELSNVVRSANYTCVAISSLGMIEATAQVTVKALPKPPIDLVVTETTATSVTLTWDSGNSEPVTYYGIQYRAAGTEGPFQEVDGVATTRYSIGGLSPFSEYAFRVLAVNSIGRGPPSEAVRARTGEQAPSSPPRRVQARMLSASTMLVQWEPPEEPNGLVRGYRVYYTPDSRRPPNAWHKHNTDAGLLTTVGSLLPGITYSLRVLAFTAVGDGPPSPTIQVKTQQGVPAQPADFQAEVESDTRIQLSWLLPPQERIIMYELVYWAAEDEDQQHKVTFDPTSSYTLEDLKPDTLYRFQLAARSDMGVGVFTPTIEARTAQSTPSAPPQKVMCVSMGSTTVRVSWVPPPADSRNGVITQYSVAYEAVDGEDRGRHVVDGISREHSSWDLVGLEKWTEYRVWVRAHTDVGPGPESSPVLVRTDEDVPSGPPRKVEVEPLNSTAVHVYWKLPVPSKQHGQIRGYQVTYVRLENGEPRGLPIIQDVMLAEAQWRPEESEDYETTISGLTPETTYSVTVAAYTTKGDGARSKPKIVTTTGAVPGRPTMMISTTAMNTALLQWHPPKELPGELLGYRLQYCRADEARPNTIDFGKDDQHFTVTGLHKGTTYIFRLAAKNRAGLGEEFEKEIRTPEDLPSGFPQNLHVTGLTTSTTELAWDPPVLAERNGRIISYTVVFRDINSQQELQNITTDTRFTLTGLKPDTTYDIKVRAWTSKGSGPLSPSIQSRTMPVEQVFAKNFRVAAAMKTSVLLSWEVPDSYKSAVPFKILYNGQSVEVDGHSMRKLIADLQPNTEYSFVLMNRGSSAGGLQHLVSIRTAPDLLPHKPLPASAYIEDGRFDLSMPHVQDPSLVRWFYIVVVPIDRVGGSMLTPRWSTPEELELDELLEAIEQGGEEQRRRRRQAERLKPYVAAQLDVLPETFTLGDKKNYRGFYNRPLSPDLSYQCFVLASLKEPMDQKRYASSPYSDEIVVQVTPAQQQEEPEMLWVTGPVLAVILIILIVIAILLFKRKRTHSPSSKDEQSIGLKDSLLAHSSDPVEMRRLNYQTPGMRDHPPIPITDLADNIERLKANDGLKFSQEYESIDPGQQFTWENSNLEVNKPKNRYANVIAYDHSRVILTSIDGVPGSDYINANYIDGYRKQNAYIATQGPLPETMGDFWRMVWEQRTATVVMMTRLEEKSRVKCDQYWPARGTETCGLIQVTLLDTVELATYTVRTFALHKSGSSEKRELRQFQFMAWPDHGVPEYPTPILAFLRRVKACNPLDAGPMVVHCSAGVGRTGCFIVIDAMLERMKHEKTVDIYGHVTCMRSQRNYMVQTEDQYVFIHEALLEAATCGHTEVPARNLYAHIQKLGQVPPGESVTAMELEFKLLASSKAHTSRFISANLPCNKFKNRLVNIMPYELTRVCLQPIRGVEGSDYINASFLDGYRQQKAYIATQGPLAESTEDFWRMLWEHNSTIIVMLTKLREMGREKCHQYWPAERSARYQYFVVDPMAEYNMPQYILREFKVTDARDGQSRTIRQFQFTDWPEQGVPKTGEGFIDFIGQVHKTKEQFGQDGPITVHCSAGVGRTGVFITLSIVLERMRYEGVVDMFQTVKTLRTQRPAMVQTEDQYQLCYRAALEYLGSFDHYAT

Consider `CCCCCC(=O)n1ncc2c1C(C)(C)[C@@H]1CC[C@]3(C)[C@H](CC=C4[C@@H]5CC(C)(C)CC[C@]5(C(=O)O)CC[C@]43C)[C@@]1(C)C2`, for which the results for the IC50 in assay [1] and in assay [2] were 5.56 µM and 1.75 µM, respectively. The Ratio IC50 in the assay filed under Homo sapiens worked out at 3.2.

Turning to `CC1(C)CC[C@]2(C(=O)O)CC[C@]3(C)C(=CC[C@@H]4[C@@]5(C)Cc6nc7ccccc7nc6C(C)(C)[C@@H]5CC[C@]43C)[C@@H]2C1`, the 50% inhibitory concentration (IC50) was 5.88 µM in assay [1]; greater than 40 µM in assay [3]; 1.43 µM in assay [2]; greater than 40 µM in assay [4]; greater than 40 µM in assay [5]. In the assay filed under Homo sapiens, the Ratio IC50 amounted to 4.1.

For `Cc1ncc2c(n1)C(C)(C)[C@@H]1CC[C@]3(C)[C@H](CC=C4[C@@H]5CC(C)(C)CC[C@]5(C(=O)O)CC[C@]43C)[C@@]1(C)C2`, the IC50 in assay [1] was 6.5 µM; in assay [2], 2.61 µM. In addition, the Ratio IC50 in the assay listed under Homo sapiens turned out to be 2.5.

For `CC1(C)CC[C@]2(C(=O)O)CC[C@]3(C)C(=CC[C@@H]4[C@@]5(C)C[C@@H](O)[C@H](O)C(C)(C)[C@@H]5CC[C@]43C)[C@@H]2C1` [MASLINIC ACID], the IC50 in assay [1] was 19.5 µM; in assay [3], greater than 40 µM; in assay [2], 5.93 µM; in assay [6], 28 µM; in assay [4], greater than 40 µM; in assay [5], greater than 40 µM. Besides, the Ratio IC50 in the assay listed under Homo sapiens stood at 3.3.

`CC1(C)CC[C@]2(C(=O)O)CC[C@]3(C)C(=CC[C@@H]4[C@@]5(C)C[C@H](O)[C@H](O)C(C)(C)[C@@H]5CC[C@]43C)[C@@H]2C1` [AUGUSTIC ACID] came in with an IC50 in assay [2] of 4.93 µM.

Take `CC(=O)n1ncc2c1C(C)(C)[C@@H]1CC[C@]3(C)[C@H](CC=C4[C@@H]5CC(C)(C)CC[C@]5(C(=O)O)CC[C@]43C)[C@@]1(C)C2`: the half-inhibitory concentration (IC50) came out at 4.93 µM in assay [1] and 1.48 µM in assay [2]. Further, the Ratio IC50 in the assay listed under Homo sapiens came out at 3.3.

Consider `CC1(C)CC[C@]2(C(=O)O)CC[C@]3(C)C(=CC[C@@H]4[C@@]5(C)Cc6c([nH]c7ccccc67)C(C)(C)[C@@H]5CC[C@]43C)[C@@H]2C1`, for which the values for the IC50 in assay [1] and in assay [2] were 1.6 µM and 0.61 µM, respectively. For the same molecule, in the assay listed under Homo sapiens, the Ratio IC50 is 2.6.

`CC1(C)CC[C@]2(C(=O)O)CC[C@]3(C)C(=CC[C@@H]4[C@@]5(C)Cc6sc(N)nc6C(C)(C)[C@@H]5CC[C@]43C)[C@@H]2C1`: the IC50 in assay [1] was 6.44 µM; in assay [3] it was greater than 40 µM; in assay [2], 1.92 µM; in assay [4], greater than 40 µM; in assay [5], greater than 40 µM. Besides, the Ratio IC50 in the assay filed under Homo sapiens turned out to be 3.4.

`CC1(C)CC[C@]2(C(=O)O)CC[C@]3(C)C(=CC[C@@H]4[C@@]5(C)Cc6cncnc6C(C)(C)[C@@H]5CC[C@]43C)[C@@H]2C1`: the concentration for half-maximal inhibition (IC50) in assay [1] is 8.19 µM; in assay [3] it was greater than 40 µM; in assay [2] it was 2.73 µM; in assay [4], greater than 40 µM; in assay [5], greater than 40 µM. Moreover, in the assay filed under Homo sapiens, the Ratio IC50 was 3.

As for `CC1(C)CC[C@]2(C(=O)O)CC[C@]3(C)C(=CC[C@@H]4[C@@]5(C)Cc6cnn(C(=O)c7ccncc7)c6C(C)(C)[C@@H]5CC[C@]43C)[C@@H]2C1`, the half-maximal inhibitory concentration (IC50) in assay [1] came to 3.62 µM; in assay [2], 0.81 µM. Moreover, the Ratio IC50 in the assay listed under Homo sapiens was 4.5.

In the case of `CC1(C)CC[C@]2(C(=O)O)CC[C@]3(C)C(=CC[C@@H]4[C@@]5(C)Cc6cnn(-c7ccccc7)c6C(C)(C)[C@@H]5CC[C@]43C)[C@@H]2C1`, the IC50 in assay [1] is 3.8 µM; in assay [3], greater than 40 µM; in assay [2], 1.39 µM; in assay [4], greater than 40 µM; in assay [5] it was greater than 40 µM. In addition, the Ratio IC50 in the assay listed under Homo sapiens worked out at 2.7.

For `CC1(C)CC[C@]2(C(=O)O)CC[C@]3(C)C(=CC[C@@H]4[C@@]5(C)Cc6cn[nH]c6C(C)(C)[C@@H]5CC[C@]43C)[C@@H]2C1`, the IC50 in assay [1] is 5.99 µM; in assay [3], greater than 40 µM; in assay [2], 1.65 µM; in assay [4], greater than 40 µM; in assay [5] it was greater than 40 µM. For the same molecule, the Ratio IC50 in the assay filed under Homo sapiens amounted to 3.6.

`CC1(C)CC[C@]2(C(=O)O)CC[C@]3(C)C(=CC[C@@H]4[C@@]5(C)Cc6cnn(C(=O)c7cccnc7)c6C(C)(C)[C@@H]5CC[C@]43C)[C@@H]2C1`: the 50% inhibitory concentration (IC50) amounted to 4.39 µM in assay [1] and 0.64 µM in assay [2]. Besides, the Ratio IC50 in the assay listed under Homo sapiens is 6.9.

On to `O=C(O)C(=O)c1ccc(OCc2ccc(COc3ccc(C(=O)C(=O)O)cc3)cc2)cc1`, for which the IC50 in assay [1] amounted to 6.24 µM; in assay [2], 3.89 µM. In addition, the Ratio IC50 in the assay listed under Homo sapiens was determined as 1.6.

Take `CC1(C)CC[C@]2(C(=O)O)CC[C@]3(C)C(=CC[C@@H]4[C@@]5(C)Cc6cnc(N)nc6C(C)(C)[C@@H]5CC[C@]43C)[C@@H]2C1`: the IC50 in assay [1] worked out at 5.51 µM; in assay [2], 1.78 µM. The Ratio IC50 in the assay listed under Homo sapiens amounted to 3.1.

`CC1(C)CC[C@]2(C(=O)O)CC[C@]3(C)C(=CC[C@@H]4[C@@]5(C)Cc6nccnc6C(C)(C)[C@@H]5CC[C@]43C)[C@@H]2C1`: the IC50 was 8.31 µM in assay [1]; greater than 40 µM in assay [3]; 1.79 µM in assay [2]; greater than 40 µM in assay [4]; greater than 40 µM in assay [5]. In addition, in the assay filed under Homo sapiens, the Ratio IC50 was 4.6.

Turning to `CC1(C)CC[C@]2(C(=O)O)CC[C@]3(C)C(=CC[C@@H]4[C@@]5(C)Cc6cnoc6C(C)(C)[C@@H]5CC[C@]43C)[C@@H]2C1`, the IC50 was 8.44 µM in assay [1]; greater than 40 µM in assay [3]; 2.6 µM in assay [2]; greater than 40 µM in assay [4]; greater than 40 µM in assay [5]. For the same molecule, in the assay filed under Homo sapiens, the Ratio IC50 was found to be 3.3.

In assay [2], `CC1(C)CC[C@]2(C(=O)O)CC[C@]3(C)C(=CC[C@@H]4[C@@]5(C)C[C@@H](O)[C@@H](O)C(C)(C)[C@@H]5CC[C@]43C)[C@@H]2C1` had an IC50 of 14.3 µM.

With `CNc1ncc2c(n1)C(C)(C)[C@@H]1CC[C@]3(C)[C@H](CC=C4[C@@H]5CC(C)(C)CC[C@]5(C(=O)O)CC[C@]43C)[C@@]1(C)C2`, in assay [2], 5.44 µM corresponded to half-maximal inhibition (IC50).

The IC50 is the concentration needed to halve the response being measured. Low values mean greater potency, high ones weaker potency.

These data come from ChEMBL document CHEMBL1154642, “Synthesis and biological evaluation of heterocyclic ring-substituted maslinic acid derivatives as novel inhibitors of protein tyrosine phosphatase 1B” (Bioorg Med Chem Lett, 2009).
